According to patent US5922554A, “Inhibition of cellular uptake of cholesterol” (The Regents of the University of California, priority 1996, dated 1999):

How the values were obtained:
fibroblast monolayers = experiment: Influx/uptake of ^3 H-FC (free cholesterol) from labeled LDL (or plasma, HDL) into normal fibroblast monolayers; type: cell-based, human; settings: for FC Influx: LDL-FC 60.2 μg ml^-1, 60 min, 37° C., 30 min preequilibration with inhibitor at: Na-azide 1 mM, NH4-vanadate 1 mM, NEM 2 mM, KNO3 50 mM, progesterone 30 μM, forskolin 30 μM, IBMX 100 μM, chloroquine 20 μM; for effect on LDL FC uptake: Table 3 conditions; for FC Influx, % (PBS only = 100.0): same concentrations and conditions as Table 3 FC influx, 60 min
fibroblasts = settings: Hokland et al. 1993; cited from earlier work
hepatocytes = settings: 30 μM; Lange 1994; cited from earlier work
fibroblast ACAT = settings: 30 μM; Goldstein et al. 1978; cited from earlier work
[1] = tested on: human hepatoblastoma (HepG2) cells; settings: Lange 1994; cited from earlier work

SMILES | LDL-FC influx (discussion, words) (fibroblast monolayers) | inhibition of LDL-FC pathway (summary, words) (fibroblast monolayers) | FC Influx (fibroblast monolayers) [µg] | effect on LDL FC uptake (fibroblast monolayers) | FC Influx, % (PBS only = 100.0) (fibroblast monolayers) [%] | transfer of newly-synthesized cholesterol to plasma membrane (fibroblasts) | inhibition of cholesterol transport in hepatocytes (hepatocytes) | inhibition of fibroblast ACAT activity (fibroblast ACAT) | transfer of FC from plasma membrane to cell interior [1]
C=C[C@@]1(C)CC(=O)[C@]2(O)[C@@]3(C)[C@@H](O)CCC(C)(C)[C@@H]3[C@H](O)[C@H](OC(C)=O)[C@@]2(C)O1 [Forskolin] | unaffected | not inhibited | 1.39 ± 0.01 | no effect | 105.3 | stimulated | – | – | –
CC(C)Cn1c(=O)n(C)c(=O)c2[nH]cnc21 [IBMX, isobutyl methylxanthine] | unaffected | not inhibited | 1.46 ± 0.04 | no effect | 110.8 | stimulated | – | – | –
CC(=O)[C@H]1CC[C@H]2[C@@H]3CCC4=CC(=O)CC[C@]4(C)[C@H]3CC[C@]12C [Progesterone] | without effect | not inhibited | 1.28 ± 0.06 | no effect | 97.3 | – | inhibit | maximally inhibit | promoted the transfer of FC
